The results in this text go back to patent US7022524B1, “Increasing plant growth with luminol” (The Regents of the University of California, Office of …, priority 1998, dated 2006).

Some results are limits rather than exact numbers.

The test system of data set [1] is alfalfa (Medicago sativa L.) roots. Put plainly: Root respiration (CO2 evolution / O2 uptake by gas chromatograph) of excised alfalfa roots after treating intact seedlings. The format is in vivo. The method, then:
Rhizobium meliloti 1021 (Rm1021) (Meade (1982) J. Bacteriol. 149:114-122) were grown to the early stationary phase in a defined minimal medium (as described in Vincent (1970) In “A Manual for the Practical Study of Root-Nodule Bacteria, Blackwell Scientific Publications, Oxford, UK). Bacteria were collected by centrifugation and washed three times with sterile water before roots were inoculated. UV irradiance for killing cells in some experiments was supplied as a 25 minute treatment with a transilluminator(model T1202, Sigma). The absence of living cells in UV-killed cultures and sterile, non-inoculated control treatments was verified by plating on tryptone yeast medium.
If respiration is to be measured, it is important that the plants be grown under sterile conditions for the respiration measurements (see, e.g., Guri, et al., U.S. Pat. No. 5,503,652, describing compositions and methods to prevent microbial contamination of plant tissue culture media). Seeds of alfalfa (Medicago sativa L. cv Moapa 69) were surface sterilized for 15 minutes in 70% ethanol, rinsed with water, and allowed to imbibe for four hours with aeration before germinating in a hydroponic system (as in Maxwell (1989) Plant Physiol. 91:842-847) containing nitrogen free nutrient solution (see DeJong (1981) Plant Physiol. 68:309-313). Each 400 mL plastic box contained one gram of seeds and produced about 400 seedlings after being maintained in a sterile manner for about three days with aeration at 25° C. under indirect sunlight supplemented with fluorescent lights. Plants used in these experiments consisted of cotyledons and roots with an occasional primary leaf.
Experiments used 5×10^7 colony-forming units (CFU) of bacteria per mL of plant nutrient solution unless otherwise noted. Bacteria were harvested from their growth medium, washed twice in sterile water, suspended in 1 mL of water and added to the plant nutrient solution of alfalfa seedlings 3 days after germination, when roots were approximately 4-cm long. Sterile water (1 mL) was added to the sterile non-inoculated controls. Plants were harvested to measure root respiration at various times, depending of the experiment. At harvest, roots were excised, blotted briefly on a paper towel, weighed, and enclosed in a 10-mL gas-tight test tube. Each replicate contained 1 gram fresh wt of roots from about 200 plants; every experiment had three or four replicates; and all experiments were repeated at least twice.
All assays were conducted for 30 minutes immediately after excision. Changes in CO2, and in some experiments O2, were measured at 45° C. with a thermistor detector on a Sigma 4 gas chromatograph equipped with a column (3.05 m×3.2 mm) containing Chromosorb 102 for CO2 and Molecular Sieve 5A for O2. Helium was used as the carrier gas at flow rates of 15 cm^3/min for O2 and 35 cm^3/min for CO2. The change in gas composition during the first 30 min after the roots were enclosed in the assay tubes (described above) was used to calculate respiration rates. Data were analyzed with standard statistical methods to determine SE or LSD0.05 values for comparisons of treatment effects by Student's t test or analysis of variance (see, e.g., Steel et al., (1960) Principles and Procedures of Statistics. McGraw-Hill, N.Y.).
Moapa 69′ alfalfa seeds for all experiments were soaked 30 min in 70% ethanol, rinsed with sterile water, treated 5 min in concentrated H2SO4, rinsed with sterile water, soaked 30 min in commercial bleach and then washed with sterile water. For respiration tests approximately 400 seeds (1 gram) were germinated on a 10×10-cm screen above a hydroponic nutrient solution, see Volpin (1998) Plant Physiol. 116:777-783. In some hydroponic experiments the nutrient solution was supplemented to contain ampicillin (125 mg/L) and rifampicin (10 mg/L). Plant growth experiments were done in sterile pots (10×10×10 cm) containing vermiculite. […]

A short description of data set [2]: Stability to light and heat. It counts as physicochemical. As to conditions: e.g., 40° C.
The test system of data set [3] is alfalfa seedlings. Put plainly: Net photosynthesis measured as radioactive 14CO2 incorporation in alfalfa seedlings. It counts as in vivo, Medicago sativa L. How it is done:
Twenty hours after treating alfalfa roots with purified compound D, 25% to 30% increases in net photosynthesis was effected, as measured by radioactive ^14CO2 incorporation tests. Purified compound D was supplied at approximately 100 pM in solution surrounding roots of three day old alfalfa seedlings. Net photosynthesis was measured as radioactive ^14CO2 incorporation by exposing randomized treatments of all plants simultaneously for about 15 minutes to ^14CO2 in a single chamber with thorough mixing of the chamber atmosphere. Data points were means from two to four replicates, each of which contained approximately 400 seedlings.
The isotopic assay for measuring net photosynthesis with ^14CO2 is described in Sheikholeslam (1980) Botanical Gazette 141:48-52. Briefly, to measure net photosynthesis, intact seedling are placed in a clear plastic box with direct exposure to sunlight or artificial lights. Isotopically labeled ^14CO2 is generated in the plant chamber by injecting an acid solution through a rubber stopper in the wall of the box and into a beaker containing ^14C-bicarbonate. The ^14CO2 released by that chemical reaction is distributed throughout the box with a fan. After 15 minutes of photosynthesis in the presence of ^14CO2, plants are frozen in liquid nitrogen and separated into roots, stems and leaves. The amount of ^14CO2 is measured in the various plant parts with a scintillation counter after chemical digestion of the plant matter.

Data set [4] concerns alfalfa. Put plainly: Plant growth (dry weight of shoots and roots) of alfalfa after root or seed treatment. It counts as in vivo, Medicago sativa L. How it is done:
In another experiment, treating alfalfa seedling roots with purified compound D at a presumed concentration of about 100 pM every 48 hours for 10 days increased the final shoot dry mass (as determined by weighing) 10% relative to untreated control plants.
Moapa 69′ alfalfa seeds for all experiments were soaked 30 min in 70% ethanol, rinsed with sterile water, treated 5 min in concentrated H2SO4, rinsed with sterile water, soaked 30 min in commercial bleach and then washed with sterile water. For respiration tests approximately 400 seeds (1 gram) were germinated on a 10×10-cm screen above a hydroponic nutrient solution, see Volpin (1998) Plant Physiol. 116:777-783. In some hydroponic experiments the nutrient solution was supplemented to contain ampicillin (125 mg/L) and rifampicin (10 mg/L). Plant growth experiments were done in sterile pots (10×10×10 cm) containing vermiculite. The pots were watered with the hydroponic nutrient solution (Volpin (1998) supra) supplemented to contain 1 mM NH4NO3 and various lumichrome treatments every second day. In all experiments, plants were grown under controlled conditions using a 12/12-hour day/night photoperiod and a 25/20° C. temperature regime with a photon flux density (400-700 nm) of 250 μmol/m^2-s.
Lumichrome effects on plant growth were tested by treating roots or seeds. Surface-sterilized seeds were soaked 2 hours in either 0 or 5 nM lumichrome. Then 50 seeds were planted in vermiculite in each pot. Plants germinating from untreated seeds received nutrient solution containing 0, 5 or 50 nM lumichrome. Plants developing from seeds soaked in 5 nM lumichrome were watered with lumichrome-free nutrient solution. Pots were covered initially with a clear, plastic wrap, which was removed after 6 days. Plants were harvested 12 days after germination, and roots and shoots were separated, dried, and weighed.

The nature of data set [5]: Solubility and hydrophobicity. As to conditions: for solubility during purification: all solvents; for solubility: purified compounds, water, methanol; for hydrophobicity: removed from aqueous solution in C18 resin. The format is physicochemical.
Data set [6] has as its system R. meliloti 1021. Put plainly: Production of compounds D and Y by bacterial cultures in supplemented medium. It counts as cell-based, Rhizobium meliloti. To be noted: culture medium supplemented at final concentration of 50 micromolar.
Setting [7] is: about 100 pM to seedling roots every 48 hours for 10 days.

`Cc1cc2nc3[nH]c(=O)[nH]c(=O)c3nc2cc1C` [lumichrome, 7,8,-dimethylalloxazine]: the “increase in root respiration” value in data set [1] (3 to 50 nM treatments of alfalfa roots, several experiments, P≦0.05) is 11% to 30%; in data set [1] (alfalfa roots treated with 3 nM, within 48 hours, P≦0.05), 21%; in data set [1] (intact root systems exposed 39 hours, 3 nM lumichrome or S. meliloti cells 10^7 cfu/ml, P≦0.05), 21%. The “time for the (slower) increase in root respiration” value in data set [1] (in vivo) is reported as “greater than 4 hours”. Also, the “stability to light and heat” value in data set [2] was “degraded by light and heat”. The “increase in net photosynthesis over untreated control” value in data set [3] (approximately 100 pM around roots of three day old seedlings, 20 hours after treating roots) was 25% to 30%. In data set [3] (no more than 100 pM), the “time to peak of 14CO2 incorporation” value is 5 to 10 h. Also, in data set [3] (no more than 100 pM, 8 hour time point after treating roots), the “increase in net photosynthesis above untreated controls” value is 45% to 75%. In data set [3] (no more than 100 pM, after approximately 20 hours), the 14CO2 incorporation entry is given as “about 2.0 ^14CO2 cpm×10^5 per gram cotyledon”. Also, the “14CO2 incorporation, peak” value in data set [3] (no more than 100 pM, peak after about 5 to 10 hours, negative control about 1.5) is on record as 2.5 to 2.75 ^14CO2 cpm×10^5 per gram cotyledon. Further, the “increase in plant growth” value in data set [4] (5 nM applied to young alfalfa roots, after 12 days, P≦0.05) amounted to 8%; in data set [4] (alfalfa seeds soaked in 5 nM before germination, 12 days, P≦0.01), 18%. Besides, in data set [4] (setting [7]), the “change in root dry weight” value was “no increase in root dry weight”. For the same molecule, the “increase in final shoot dry mass relative to untreated control plants” value in data set [4] (setting [7]) is reported as 10%. The “root mass relative to control” value in data set [4] (lumichrome-treated plants, 12 days) was “numerically, but not significantly, larger”. The “increase in shoot dry weight relative to control shoots” value amounted to 7% in data set [4] (root drench 5 nM, 12 days, P≦0.05); 12% in data set [4] (root drench 50 nM, 12 days, P≦0.01); 18% in data set [4] (seed soaking 5 nM, 12 days, P≦0.01). In addition, the “increase in dry matter on a whole-plant basis” value in data set [4] (roots exposed or seeds immersed before germination, P≦0.05) was 8% to 18%. Moreover, the solubility during purification entry in data set [5] is given as “Solubility problems”. Besides, the solubility entry in data set [5] is “soluble in both water and methanol”. Also, the hydrophobicity result in data set [5] is listed as “moderately hydrophobic”.

Take `CC(=O)c1c(O)cc(O)c(C(C)=O)c1O` [diacetylphloroglucinol, 2,4-diacetyl-1,3,5-benzenetriol]: the “increase in net photosynthesis in plants” value in data set [3] (applied to roots in nanomolar concentrations) was not above 50%. Further, the “effect on the production of compound Y” value in data set [6] is recorded as “no consistent effect”.

For `Cc1cc2nc3c(=O)[nH]c(=O)nc-3n(C[C@H](O)[C@H](O)[C@H](O)CO)c2cc1C` [riboflavin], the “increase in root respiration compared with lumichrome” value in data set [1] (200 nM riboflavin, one test) is reported as “approximately the same increase in root respiration as 30 nM lumichrome”. Besides, in data set [1] (very low (e.g., picomolar) concentrations, various experiments), the “increase in root respiration” value is reported as 11% to 31%. The “stability to light and heat” value in data set [2] was “degraded by light and heat”. Besides, the “enhancement of net photosynthesis” value in data set [3] (very low (e.g., picomolar) concentrations) is recorded as not above 7%. Besides, in data set [5], the solubility during purification result is “only marginally better”; the solubility result was “soluble in both water and methanol”; the hydrophobicity result was “moderately hydrophobic”.

For the molecule `Oc1cc(O)cc(O)c1` [phloroglucinol, reference compound], the “effect on the production of compound Y” value in data set [6] is recorded as “no consistent effect”.

With `CC(=O)c1c(O)cc(O)cc1O` [monoacetylphloroglucinol], the “effect on the production of compound Y” value in data set [6] is reported as “no consistent effect”.
